This is an account of results in US6706509B2, “Oncoprotein protein kinase” (The Regents of the University of California, priority 1993, dated 2004).

For the assay, the system named is jun-D. Description: Northern blot of jun-D expression in Jurkat cells. The class given is cell-based, human. Particulars: CsA 100 ng/ml, 40 minutes. How it is done:
Exponentially growing Jurkat cells (10^6/ml) grown in complete RPMI medium was pretreated with CsA for 15 minutes when applicable, then subjected to various treatments for another 40 minutes. Total cytoplasmic RNA was extracted as previously described (Angel, et al., Cell, 49:729-739, 1987). 10 μg RNA was denatured by incubating with glyoxal for 60 minutes at 55° C. and fractionated on a 1% agarose gel in phosphate buffer. The fractionated RNA was blotted to Zetabind Nylon membrane (CUNO Labs) and hybridized to ^32P-labelled cDNA probes specific for c-jun, jun-B, jun-D, c-fos, α-tubulin and IL-2.
During the first stage of T lymphocyte activation, early response genes are rapidly included (Crabtree, Science, 243:355,361, 1989; Zipfel, et al., Mol Cell Bio., 9:1041-1048, 1989). Induction of jun and fos genes during activation of the Jurkat T cell line was investigated. […] After fractionation of 10 μg samples on an agarose gel and transfer to nylon membrane, the level of c-jun, jun-B, jun-D, c-fos and α-tubulin expression was determined by hybridization to random primed cDNA probes.

In the case of cyclosporin A [CsA], the “effect on potentiation of jun-D expression by TPA+A23187” value is reported as “not inhibited”.
